In US8680012B2, “4-phenyl-pyrane-3,5-diones,4-phenyl-thiopyrane-3,6-diones and cyclohexanetriones as novel herbicides” (Syngenta Crop Protection LLC, priority 2006, dated 2014):

Columns and labels:
Format in all cases: in vivo
[1] = test system: Alopecurus myosuroides (ALOMY); test: Example B pre-emergence herbicidal activity, glasshouse pot test; details: 312 h, rate 250 g/ha, evaluated after 13 days, read-out: Pre-emergence activity ALOMY (100=total damage to plant; 0=no damage to plant)
Summary of the method: (§1)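 Damage rating, 0–100, at 13 d after application. Spray solution: a.i. in acetone/water (50:50), 0.5% Tween 20. Applied 1 d after sowing or at 8 d growth; pots held at 24/16 °C, 14 h light, 65% humidity.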

Setaria faberi (SETFA) [2] = test: as above; details: 312 h, rate 250 g/ha, evaluated after 13 days, read-out: Pre-emergence activity SETFA (100=total damage to plant; 0=no damage to plant)
Summary of the method: as §1

[3] = test system: Echinochloa crus-galli (ECHCG); test: as above; details: 312 h, rate 250 g/ha, evaluated after 13 days, read-out: Pre-emergence activity ECHCG (100=total damage to plant; 0=no damage to plant)
Summary of the method: as §1

[4] = test system: Amaranthus retroflexus (AMARE); test: as above; details: 312 h, rate 250 g/ha, evaluated after 13 days, read-out: Pre-emergence activity AMARE (100=total damage to plant; 0=no damage to plant)
Summary of the method: as §1

Avena fatua (AVEFA) [5] = test: as above; details: 312 h, rate 250 g/ha, evaluated after 13 days, read-out: Pre-emergence activity AVEFA (100=total damage to plant; 0=no damage to plant)
Summary of the method: as §1

[6] = test system: Alopecurus myosuroides (ALOMY); test: Example B post-emergence herbicidal activity, glasshouse pot test; details: 312 h, rate 250 g/ha, evaluated after 13 days, read-out: Post-emergence activity ALOMY (100=total damage to plant; 0=no damage to plant)
Summary of the method: as §1

Setaria faberi (SETFA) [7] = test: as above; details: 312 h, rate 250 g/ha, evaluated after 13 days, read-out: Post-emergence activity SETFA (100=total damage to plant; 0=no damage to plant)
Summary of the method: as §1

[8] = test system: Echinochloa crus-galli (ECHCG); test: as above; details: 312 h, rate 250 g/ha, evaluated after 13 days, read-out: Post-emergence activity ECHCG (100=total damage to plant; 0=no damage to plant)
Summary of the method: as §1

[9] = test system: Amaranthus retroflexus (AMARE); test: as above; details: 312 h, rate 250 g/ha, evaluated after 13 days, read-out: Post-emergence activity AMARE (100=total damage to plant; 0=no damage to plant)
Summary of the method: as §1

Avena fatua (AVEFA) [10] = test: as above; details: 312 h, rate 250 g/ha, evaluated after 13 days, read-out: Post-emergence activity AVEFA (100=total damage to plant; 0=no damage to plant)
Summary of the method: as §1

Row | SMILES | pest or weed control at 250 g/ha [1] | pest or weed control at 250 g/ha (Setaria faberi (SETFA) [2]) | pest or weed control at 250 g/ha [3] | pest or weed control at 250 g/ha [4] | pest or weed control at 250 g/ha (Avena fatua (AVEFA) [5]) | pest or weed control at 250 g/ha [6] | pest or weed control at 250 g/ha (Setaria faberi (SETFA) [7]) | pest or weed control at 250 g/ha [8] | pest or weed control at 250 g/ha [9] | pest or weed control at 250 g/ha (Avena fatua (AVEFA) [10])
1 | CCc1ccc(-c2ccc(Cl)cc2)cc1C1=C(O)[C@]2(C)O[C@@H](CC2COC)C1=O (some centres unmarked) [Compound A-122] | 40% | 100% | 90% | 0% | 100% | 80% | 100% | 100% | 40% | 50%
2 | CCc1ccc(-c2ccc(Cl)c(F)c2)cc1C1=C(O)[C@]2(C)O[C@@H](CC2COC)C1=O (some centres unmarked) [Compound A-127] | 30% | 90% | 50% | 0% | 70% | 80% | 100% | 100% | 0% | 40%
3 | CCc1ccc(-c2ccc(Cl)c(Cl)c2)cc1C1=C(O)[C@]2(C)O[C@@H](CC2COC)C1=O (some centres unmarked) [Compound A-130] | 20% | 90% | 40% | 0% | 20% | 40% | 100% | 100% | 0% | 40%
4 | CCc1ccc(-c2ccc(Cl)c(Cl)c2)cc1C1=C(O)[C@H]2CC[C@H](O2)C1=O [Compound A-132] | 0% | 0% | 0% | 0% | 0% | 20% | 90% | 70% | 0% | 30%
5 | CCc1ccc(-c2ccc(Cl)cc2Cl)cc1C1=C(O)[C@]2(C)O[C@@H](CC2COC)C1=O (some centres unmarked) [Compound A-133] | 10% | 80% | 0% | 0% | 70% | 20% | 100% | 100% | 70% | 80%
6 | CCc1ccc(-c2ccc(Cl)c(OC)c2)cc1C1=C(O)C(C)(C)OC(C)(C)C1=O [Compound A-135] | 80% | 100% | 100% | 0% | 100% | 100% | 100% | 100% | 0% | 100%
7 | CCc1ccc(-c2ccc(Cl)c([N+](=O)[O-])c2)cc1C1=C(O)C(C)(C)OC(C)(C)C1=O [Compound A-136] | 20% | 30% | 90% | 0% | 80% | 80% | 70% | 100% | 0% | 100%
8 | CCc1ccc(-c2ccc(Cl)c(Cl)c2Cl)cc1C1=C(O)C(C)(C)OC(C)(C)C1=O [Compound A-137] | 70% | 100% | 100% | 0% | 90% | 90% | 100% | 100% | 30% | 90%
9 | CCc1ccc(-c2ccc(Cl)c(F)c2Cl)cc1C1=C(O)C(C)(C)OC(C)(C)C1=O [Compound A-138] | 90% | 100% | 100% | 20% | 90% | 100% | 100% | 100% | 60% | 100%
10 | CCc1ccc(-c2cc(Cl)c(Cl)c(Cl)c2)cc1C1=C(O)C(C)(C)OC(C)(C)C1=O [Compound A-139] | 0% | 70% | 30% | 0% | 0% | 30% | 80% | 100% | 50% | 50%
11 | CC1(C)OC(C)(C)C(O)=C(c2cc(-c3ccc(Cl)cc3F)ccc2Cl)C1=O [Compound A-141] | 20% | 80% | 100% | 0% | 30% | 50% | 80% | 100% | 0% | 50%
12 | CC1(C)OC(C)(C)C(O)=C(c2cc(-c3ccc(Cl)cc3)ccc2Cl)C1=O [Compound A-142] | 60% | 100% | 70% | 0% | 70% | 100% | 80% | 100% | 0% | 80%
13 | Cc1ccc(-c2cnn(Cc3ccccc3)c2)cc1C1=C(O)C(C)(C)OC(C)(C)C1=O [Compound A-143] | 20% | 70% | 0% | 0% | 0% | 90% | 90% | 100% | 0% | 80%
14 | CCc1ccc(-c2cc(Cl)c(Cl)cc2Cl)cc1C1=C(O)C(C)(C)OC(C)(C)C1=O [Compound A-144] | 100% | 100% | 90% | 30% | 80% | 100% | 100% | 100% | 40% | 100%
15 | CCc1ccc(-c2ccc(C(F)F)cc2)cc1C1=C(O)C(C)(C)OC(C)(C)C1=O [Compound A-147] | 100% | 70% | 100% | 0% | 60% | 100% | 70% | 100% | 0% | 90%
16 | CC1(C)OC(C)(C)C(O)=C(c2cc(-c3ccc(Cl)cc3)ccc2Br)C1=O [Compound A-149] | 60% | 90% | 100% | 0% | 30% | 90% | 100% | 100% | 20% | 70%
17 | CCc1ccc(-c2ccc(Cl)cn2)cc1C1=C(O)C(C)(C)OC(C)(C)C1=O [Compound A-150] | 90% | 100% | 100% | 0% | 40% | 90% | 100% | 100% | 0% | 80%
